In patent US20240409537A1, “Crystal Form of AMG510 Compound, and Preparation Method Thereof and Use Thereof” (BIRDO (SHANGHAI) PHARMACEUTICAL R&D CO., LTD, priority 2021, published 2024):
Values after ≈ are worked out from the molar mass of the structure shown. “Also recorded” adds a separate entry of the source. Like-named read-outs stand apart in the source and are kept apart here. Values belong to the molecule of their own block, whether it stands above or below them.

Assays:
[1] = Hygroscopicity (Chinese Pharmacopoeia 9103, 25±1° C., 80% relative humidity); type: physicochemical; details: 80% RH, 24 h
Description: According to the description of hygroscopicity characteristics and the definition (9103 Drug Hygroscopicity Experiment Guiding Principles, 2020 edition of General Principles, Chinese Pharmacopoeia, experimental conditions: 25±1° C., 80% relative humidity) of the hygroscopic weight gain: • deliquescent: enough water is absorbed to form liquid • very hygroscopic: the hygroscopic weight gain is not less than 15.0% • hygroscopic: the hygroscopic weight gain is less than 15.0% but not less than 2.0% • slightly hygroscopic: the hygroscopic weight gain is less than 2.0% but not less than 0.2% • no or almost no hygroscopicity: the hygroscopic weight gain is […].

[2] = Dynamic solubility of crystal form in SGF, FaSSIF, FeSSIF and water (HPLC); type: physicochemical
Description: When a drug solubility test was performed to predict the performances of a drug in vivo, it is important to simulate in vivo conditions as much as possible. For oral drugs, simulated gastric fluid (SGF), fasted state simulated intestinal fluid (FaSSIF) and fed state simulated intestinal fluid (FeSSIF) may be used to simulate in vivo conditions and predict a feeding effect, and the solubility tested in such media was closer to the solubility in the human body environment.

[3] = Mechanical stability: manual grinding, XRPD before and after; type: physicochemical; details: ground manually in a mortar for 5 min
[4] = Stability of crystal form DCIII on sealed placement (HPLC purity, XRPD crystal form); type: physicochemical
[5] = cited from earlier work
[6] = 25° C./60% RH, 1 month, sealed, listed as crystal form DCIII
[7] = 40° C./75% RH, 1 month, sealed, listed as crystal form DCIII
[8] = 60° C./75% RH, 1 month, sealed, listed as crystal form DCIII

Weight gain percentage [1]: 0.6%
Weight gain mass ([1]; onset mass 102.76 mg): 0.64 mg
Solubility FaSSIF 1 h ([2]; FaSSIF, equilibrated 1 h): 50 µg/mL (≈ 89.2 µM)
Solubility FaSSIF 4 h ([2]; FaSSIF, equilibrated 4 h): 40 µg/mL (≈ 71.4 µM)
Solubility FaSSIF 24 h ([2]; FaSSIF, equilibrated 24 h): 40 µg/mL (≈ 71.4 µM)
Solubility FeSSIF 1 h ([2]; FeSSIF, equilibrated 1 h): 150 µg/mL (≈ 268 µM)
Solubility FeSSIF 4 h ([2]; FeSSIF, equilibrated 4 h): 200 µg/mL (≈ 357 µM)
Solubility FeSSIF 24 h ([2]; FeSSIF, equilibrated 24 h): 80 µg/mL (≈ 143 µM)
Solubility H2O 1 h ([2]; equilibrated 1 h): 30 µg/mL (≈ 53.5 µM)
Solubility H2O 4 h ([2]; equilibrated 4 h): 30 µg/mL (≈ 53.5 µM)
Solubility H2O 24 h ([2]; equilibrated 24 h): 30 µg/mL (≈ 53.5 µM)
Solubility compared with anhydrous crystal form I (in words) ([2]; SGF, FaSSIF, FeSSIF and pure water): higher solubility
Solubility SGF 1 h ([2]; SGF, equilibrated 1 h): 7270 µg/mL (≈ 13000 µM)
Solubility SGF 4 h ([2]; SGF, equilibrated 4 h): 6240 µg/mL (≈ 11100 µM)
Solubility SGF 24 h ([2]; SGF, equilibrated 24 h): 4540 µg/mL (≈ 8100 µM)
Crystallinity after grinding [3]: no significant decrease
Crystal form (XRPD) ([4]; 25° C./60% RH, 1 month, sealed): Crystal form DCIII
Purity (HPLC) ([4]; 25° C./60% RH, 1 month, sealed): 99.45%
Crystal form (XRPD) [4, 6]: remains unchanged
Purity (HPLC) [4, 6]: above 99%
Time for which physicochemical stability is maintained ([4]; 25° C./60% RH, 40° C./75% RH and 60° C./75% RH): at least 1 month
Crystal form (XRPD) ([4]; 40° C./75% RH, 1 month, sealed): Crystal form DCIII
Purity (HPLC) ([4]; 40° C./75% RH, 1 month, sealed): 99.49%
Crystal form (XRPD) [4, 7]: remains unchanged
Purity (HPLC) [4, 7]: does not present a significant decrease
Crystal form (XRPD) ([4]; 60° C./75% RH, 1 month, sealed): Crystal form DCIII
Purity (HPLC) ([4]; 60° C./75% RH, 1 month, sealed): 99.50%
Crystal form (XRPD) [4, 8]: remains unchanged
Purity (HPLC) [4, 8]: does not present a significant decrease
Crystal form (XRPD) ([4]; Onset): Crystal form DCIII
Purity (HPLC) ([4]; Onset): 99.44%
Structure (SMILES): C=CC(=O)N1CCN(c2nc(=O)n(-c3c(C)ccnc3C(C)C)c3nc(-c4c(O)cccc4F)c(F)cc23)[C@@H](C)C1 [Crystal form DCIII, 6-fluoro-7-(2-fluoro-6-hydroxyphenyl)-1-(4-methyl-2-propane-2-ylpyridin-3-yl)-4-[(2S)-2-methyl-4-propyl-2-enoylpiperazin-1-yl]pyridine[2,3-d]pyrimidin-2-one]
Crystal form before and after grinding (XRPD) [3]: remained unchanged; also recorded: no crystal transformation

Solubility FaSSIF 1 h ([2]; FaSSIF, equilibrated 1 h): 20 µg/mL (≈ 35.7 µM)
Solubility FaSSIF 4 h ([2]; FaSSIF, equilibrated 4 h): 10 µg/mL (≈ 17.8 µM)
Solubility FeSSIF 4 h ([2]; FeSSIF, equilibrated 4 h): 40 µg/mL (≈ 71.4 µM)
Solubility H2O 1 h ([2]; equilibrated 1 h): 10 µg/mL (≈ 17.8 µM)
Solubility H2O 4 h ([2]; equilibrated 4 h): 10 µg/mL (≈ 17.8 µM)
Solubility H2O 24 h ([2]; equilibrated 24 h): 10 µg/mL (≈ 17.8 µM)
solubility at 24 h ([2]; fasted state simulated intestinal fluid (FaSSIF), fassif, thermodynamic from solid, FaSSIF, equilibrated 24 h, read-out: Solubility FaSSIF 24 h): 30 µg/mL (≈ 53.5 µM)
solubility at 24 h ([2]; fed state simulated intestinal fluid (FeSSIF), fessif, thermodynamic from solid, FeSSIF, equilibrated 24 h, read-out: Solubility FeSSIF 24 h): 60 µg/mL (≈ 107 µM)
solubility at 1 h ([2]; simulated gastric fluid (SGF), simulated gastric fluid, thermodynamic from solid, SGF, equilibrated 1 h): 3770 µg/mL (≈ 6720 µM)
solubility at 4 h ([2]; simulated gastric fluid (SGF), simulated gastric fluid, thermodynamic from solid, SGF, equilibrated 4 h): 3860 µg/mL (≈ 6890 µM)
solubility at 24 h ([2]; simulated gastric fluid (SGF), simulated gastric fluid, thermodynamic from solid, SGF, equilibrated 24 h, read-out: Solubility SGF 24 h): 3110 µg/mL (≈ 5550 µM)
Structure (SMILES): C=CC(=O)N1CCN(c2nc(=O)n(-c3c(C)ccnc3C(C)C)c3nc(-c4c(O)cccc4F)c(F)cc23)[C@@H](C)C1 [Anhydrous crystal form I, 6-fluoro-7-(2-fluoro-6-hydroxyphenyl)-1-(4-methyl-2-propane-2-ylpyridin-3-yl)-4-[(2S)-2-methyl-4-propyl-2-enoylpiperazin-1-yl]pyridine[2,3-d]pyrimidin-2-one, reference compound]
Solubility (prior-art form, in words) [5]: low solubility
